# Marks after values point to notes of the source that are not given here.
# Legend:
# normotensive rats = test: Influence on blood pressure in the normotensive rats; type: in vivo, rat; conditions: for DBP—diastolic blood pressure / SBP—systolic blood pressure: mean ± SD
# Description: The experiment was performed according to the method described earlier. Normotensive Wistar rats were anesthetized with thiopental (75 mg/kg ip). The right carotid artery was cannulated with a polyethylene tube filled with heparin solution, using a Datamax apparatus (Columbus Instruments, Columbus, OH, USA). After 15 min of the stabilization period, the studied compounds were administered iv, and their effect on systolic and diastolic blood pressure was evaluated (Figure 4A).
# [1] = system: aconitine-induced arrhythmia model in rats; test: Prophylactic antiarrhythmic activity in aconitine-induced arrhythmia; type: in vivo, rat; conditions: 5 mg/kg iv 15 min before aconitine 20 μg/kg; number of animals with event
# normal ECG in rats = test: Effect on a normal electrocardiogram in rats; type: in vivo, rat; conditions: for HR—heart rate / PQ interval / QRS complex / QTc (Bazzett's formula) / decrease of the heart rate: 5 mg/kg iv; for HR—heart rate / PQ interval / QRS complex / QTc (Bazzett's formula): mean ± SD; for PQ interval / QRS complex / QTc (Bazzett's formula): in ms (unit assumed)
# Description: The procedure was performed to exclude the negative effects of the tested compounds on the normal ECG, according to the method described earlier. […] Firstly, animals were anesthetized with thiopental (75 mg/kg ip). […] The influence on PQ, QTc interval, QRS complex, and heart rate was evaluated. The Bazzett’s formula: QTc = QT/√RR was used to calculate QTc. All the studied compounds were administered at a dose of 5 mg/kg.
# [2] = system: calcium chloride-induced arrhythmia model in rats; test: Prophylactic antiarrhythmic activity in calcium chloride-induced arrhythmia; type: in vivo, rat; conditions: 5 mg/kg iv 15 min before calcium chloride 140 mg/kg; number of animals with event
# [3] = system: adrenaline-induced arrhythmia model in rats; test: Therapeutic antiarrhythmic activity in adrenaline-induced arrhythmia; conditions: 5 mg/kg iv immediately after adrenaline 20 µg/kg; number of animals with event
# Description: The experiments were carried out according to the method described by Szekeres and Papp [71]. The heart rhythm disturbances, such as extrasystoles, conduction blocks, and bradycardia, were induced by iv injection of adrenaline (20 µg/kg) to anesthetized rats (thiopental, 75 mg/kg, ip). […] The Aspel ASCARD apparatus (standard II lead, with a tape of speed 50 mm/s and voltage calibration of 1 mV = 1 cm) was used for the ECG measurements. The ECG was recorded during the first 2 min and in the 5th, 10th, and 15th min after the adrenaline injection (Figure 3B). The lack or decreased amount of extrasystoles, atrioventricular blocks, and bradycardia in the ECG recordings compared to the control group was the criterion of antiarrhythmic activity [72].
# Automated ECG waveform analysis was evaluated as described earlier [55], using Eleven Maze software version 0.1 from Eleven Products Sp. z o.o. […] The software, under expert supervision, recognized and classified the heart rhythm irregularities. It also calculated PQ, QRS, QTc, and rate parameters.
# [4] = system: adrenaline-induced arrhythmia model in rats; test: Prophylactic antiarrhythmic activity in adrenaline-induced arrhythmia; type: in vivo, rat; conditions: for Blocks / Bradycardia / Extrasystoles / Mortality: number of animals with event
# α2-adrenergic receptors = test: α2-adrenoceptor radioligand binding assay ([3H]-clonidine, rat cortex); conditions: rat cortex tissue, mean ± SEM, n.a. = did not bind at 10^−5 M
# Description: The α1- and α2-adrenoceptor radioligand binding assays were performed on the rat cerebral cortex using previously described methods. […] The brains were homogenized using the ULTRA-TURRAX homogenizer in 10 mL of an ice-cold 50 mM Tris-HCl buffer (pH 7.6). The homogenates were centrifuged at 20,000× g for 20 min (0–4 °C). Subsequently, the cell pellet was resuspended in the Tris–HCl buffer and centrifuged again. Radioligand binding assays were carried out in plates (MultiScreen/Millipore). The final incubation mixture, with a volume of 300 μL, consisted of 240 μL of the tissue suspension, 30 μL of the radioligand solution, and 30 μL of the buffer containing 7–8 concentrations of the studied compounds. In order to measure the unspecific binding, 10 μM phentolamine (for [^3H]-prazosin) or 10 μM clonidine (for [^3H]-clonidine) were utilized. The incubation was completed by rapid filtration through Whatman GF/C filters using a vacuum manifold (Millipore). The filters were then washed twice with the assay buffer and placed in scintillation vials with a liquid scintillation cocktail. Radioactivity was measured in a WALLAC 1409 DSA liquid scintillation counter (Perkin Elmer, USA). All the assays were performed in duplicates, and the inhibitory constants (Ki) were calculated.
# [5] = 1.0 mg/kg iv, 0 min (before administration)
# [6] = 2.5 mg/kg iv, 0 min (before administration)
# [7] = 0 min (prior to administration)
# [8] = 0.25 mg/kg iv 15 min before adrenaline 20 μg/kg
# [9] = 0.5 mg/kg iv 15 min before adrenaline 20 μg/kg
# [10] = 1 mg/kg iv 15 min before adrenaline 20 μg/kg
smiles,measurement,setting,value
"Cl.NC(=O)c1ccccc1OCCCCCN1CCN(c2cccc(Cl)c2)CC1 [JJGW02, 2-{5-[4-(3-chlorophenyl)piperazin-1-ylo]pentoxy}benzamide hydrochloride]",DBP—diastolic blood pressure,normotensive rats; [5],87.7 ± 14.9 mmHg
same,SBP—systolic blood pressure,normotensive rats; [5],118.0 ± 10.5 mmHg
same,DBP—diastolic blood pressure,"normotensive rats; 1.0 mg/kg iv, 5 min",82.7 ± 16.0 mmHg
same,SBP—systolic blood pressure,"normotensive rats; 1.0 mg/kg iv, 5 min",113.7 ± 8.7 mmHg
same,DBP—diastolic blood pressure,"normotensive rats; 1.0 mg/kg iv, 10 min",83.3 ± 10.3 mmHg
same,SBP—systolic blood pressure,"normotensive rats; 1.0 mg/kg iv, 10 min",111.2 ± 6.4 mmHg
same,DBP—diastolic blood pressure,"normotensive rats; 1.0 mg/kg iv, 20 min",80.0 ± 14.1 mmHg
same,SBP—systolic blood pressure,"normotensive rats; 1.0 mg/kg iv, 20 min",109.7 ± 9.1 mmHg
same,DBP—diastolic blood pressure,"normotensive rats; 1.0 mg/kg iv, 30 min",73.7 ± 10.6 mmHg
same,SBP—systolic blood pressure,"normotensive rats; 1.0 mg/kg iv, 30 min",105.7 ± 7.5 mmHg
same,DBP—diastolic blood pressure,"normotensive rats; 1.0 mg/kg iv, 40 min",75.0 ± 13.2 mmHg
same,SBP—systolic blood pressure,"normotensive rats; 1.0 mg/kg iv, 40 min",107.7 ± 11.5 mmHg
same,DBP—diastolic blood pressure,"normotensive rats; 1.0 mg/kg iv, 50 min",73.7 ± 13.9 mmHg
same,SBP—systolic blood pressure,"normotensive rats; 1.0 mg/kg iv, 50 min",108.7 ± 12.9 mmHg
same,DBP—diastolic blood pressure,"normotensive rats; 1.0 mg/kg iv, 60 min",76.7 ± 19.2 mmHg
same,SBP—systolic blood pressure,"normotensive rats; 1.0 mg/kg iv, 60 min",111.0 ± 18.0 mmHg
same,DBP—diastolic blood pressure,normotensive rats; [6],84.8 ± 12.1 mmHg
same,SBP—systolic blood pressure,normotensive rats; [6],114.3 ± 15.7 mmHg
same,DBP—diastolic blood pressure,"normotensive rats; 2.5 mg/kg iv, 5 min",72.0 ± 9.4 ^c mmHg
same,SBP—systolic blood pressure,"normotensive rats; 2.5 mg/kg iv, 5 min",103.2 ± 13.0 ^c mmHg
same,DBP—diastolic blood pressure,"normotensive rats; 2.5 mg/kg iv, 10 min",72.8 ± 11.6 ^b mmHg
same,SBP—systolic blood pressure,"normotensive rats; 2.5 mg/kg iv, 10 min",104.2 ± 13.2 ^b mmHg
same,DBP—diastolic blood pressure,"normotensive rats; 2.5 mg/kg iv, 20 min",73.0 ± 9.6 ^b mmHg
same,SBP—systolic blood pressure,"normotensive rats; 2.5 mg/kg iv, 20 min",102.8 ± 13.4 ^b mmHg
same,DBP—diastolic blood pressure,"normotensive rats; 2.5 mg/kg iv, 30 min",72.3 ± 8.1 ^a mmHg
same,SBP—systolic blood pressure,"normotensive rats; 2.5 mg/kg iv, 30 min",103.7 ± 10.8 ^a mmHg
same,DBP—diastolic blood pressure,"normotensive rats; 2.5 mg/kg iv, 40 min",73.8 ± 9.4 ^a mmHg
same,SBP—systolic blood pressure,"normotensive rats; 2.5 mg/kg iv, 40 min",106.5 ± 10.6 mmHg
same,DBP—diastolic blood pressure,"normotensive rats; 2.5 mg/kg iv, 50 min",73.7 ± 8.7 mmHg
same,SBP—systolic blood pressure,"normotensive rats; 2.5 mg/kg iv, 50 min",103.2 ± 9.4 ^b mmHg
same,DBP—diastolic blood pressure,"normotensive rats; 2.5 mg/kg iv, 60 min",73.7 ± 7.9 ^a mmHg
same,SBP—systolic blood pressure,"normotensive rats; 2.5 mg/kg iv, 60 min",105.2 ± 9.7 ^a mmHg
same,decrease of the systolic blood pressure,"normotensive rats; 2.5 mg/kg iv, between the 5th and 30th min and between the 50th and 60th min",8–10%
same,decrease of the diastolic blood pressure,"normotensive rats; 2.5 mg/kg iv, between the 5th to 40th min and in the 60th min",13–15%
same,Blocks,[1],6/6
same,Bradycardia,[1],6/6
same,Extrasystoles,[1],6/6
same,Fibrillations,[1],6/6
same,Mortality,[1],6/6
same,dose affecting the heart rate relative to the ED50 value in the adrenaline-induced arrhythmia model,normal ECG in rats; 5 mg/kg iv vs ED50,11 fold
same,HR—heart rate,normal ECG in rats; [7],311.1 ± 24.4
same,PQ interval,normal ECG in rats; [7],42.6 ± 2.0
same,QRS complex,normal ECG in rats; [7],36.0 ± 1.1
same,QTc (Bazzett's formula),normal ECG in rats; [7],183.3 ± 7.1
same,decrease of the heart rate,normal ECG in rats; 5th min after the injection,10%
same,decrease of the heart rate,normal ECG in rats; 10th min after the injection,15%
same,decrease of the heart rate,normal ECG in rats; 15th min after the injection,16%
same,HR—heart rate,normal ECG in rats; 5 min,278.7 ± 37.0
same,PQ interval,normal ECG in rats; 5 min,41.7 ± 1.8
same,QRS complex,normal ECG in rats; 5 min,35.2 ± 1.2
same,QTc (Bazzett's formula),normal ECG in rats; 5 min,175.4 ± 14.0
same,HR—heart rate,normal ECG in rats; 10 min,265.0 ± 30.1
same,PQ interval,normal ECG in rats; 10 min,42.2 ± 1.6
same,QRS complex,normal ECG in rats; 10 min,36.1 ± 1.8
same,QTc (Bazzett's formula),normal ECG in rats; 10 min,173.2 ± 15.7
same,HR—heart rate,normal ECG in rats; 15 min,262.0 ± 37.3
same,PQ interval,normal ECG in rats; 15 min,44.8 ± 5.9
same,QRS complex,normal ECG in rats; 15 min,35.2 ± 0.7
same,QTc (Bazzett's formula),normal ECG in rats; 15 min,175.1 ± 16.0
same,Blocks,[2],5/6
same,Bradycardia,[2],6/6
same,Extrasystoles,[2],5/6
same,Fibrillations,[2],4/6
same,Mortality,[2],6/6
same,Blocks,[3],1/6
same,Bradycardia,[3],2/6
same,Mortality,[3],1/6
same,Blocks,[4]; [8],5/6
same,Bradycardia,[4]; [8],5/6
same,Extrasystoles,[4]; [8],5/6
same,Mortality,[4]; [8],3/6
same,Blocks,[4]; [9],6/6
same,Bradycardia,[4]; [9],5/6
same,Extrasystoles,[4]; [9],5/6
same,Mortality,[4]; [9],0/6
same,Blocks,[4]; [10],5/6
same,Bradycardia,[4]; [10],4/6
same,Extrasystoles,[4]; [10],5/6
same,Mortality,[4]; [10],1/6
same,ED50,"[4]; prophylactic, iv 15 min before adrenaline 20 μg/kg, confidence limits in brackets (Litchfield and Wilcoxon)",0.45 (0.11–1.77) mg/kg
same,Adrenergic Receptors—pKi α2,α2-adrenergic receptors,6.20 ± 0.02
